{"source": "patent US20160051567A1", "about": "“PREVENTION AND TREATMENT OF KIDNEY DAMAGE” (METSELEX, INC., priority 2013, published 2016)", "key": {"caspase-9 [1]": {"system": "caspase-9", "test": "Caspase-9 activity assay in RPTE cells after cryopreservation injury", "assay_type": "cell-based, human", "settings": "100 μM and 150 μM, p<0.05", "experimental": "(§1) Cell culture: RPTE cells were grown in Renal Epithelial Cell Basal Medium (REBM) with full supplements at 37° C. in 5% CO2 incubator as per supplier's instructions. RPTE cells were able to proliferate for 6-8 passages under the culture conditions.\nCryopreservation injury: We have utilized a published cell culture model of cryopreservation injury. In brief, RPTE cells were grown to 80% confluence in the complete medium containing TUDCA or vehicle. The complete medium was then replaced with University of Wisconsin solution containing TUDCA or vehicle. The culture plates were subsequently incubated in a temperature-regulated refrigerator at 4° C. for 48 hours. To simulate warm reperfusion phase of kidney transplantation, University of Wisconsin solution was replaced with complete medium containing TUDCA or vehicle, and cells were cultured for an additional 24 hours at 37° C. We used 100 μM or 150 μM of TUDCA for these experiments.\nCaspase-9 Assay: The caspase-9 activity was measured in RPTE cells using Caspase-9 Assay kit. RPTE cells were suspended in 50 μL of chilled Cell Lysis Buffer and incubated on ice for 10 minutes. Subsequently, 50 μL of 2× Reaction Buffer and 5 μL of 1 mM LEHD-AFC substrate was added to each sample and the mixtures were incubated at 37° C. for 2 hours. The caspase-9 activity was quantified by measuring […]."}, "caspase-9 [2]": {"system": "caspase-9", "test": "Western blot for active caspase-9 in kidney after AKI", "assay_type": "in vivo", "settings": "rat kidney after AKI, Western blot with densitometry, p<0.01", "experimental": "(§2) Rat model of AKI: All experiments were performed in accordance with the Institutional Animal Care and Use Committee. Six to eight week old Sprague-Dawley rats were anaesthetized by isoflurane gas, a midline abdominal incision was made, and bilateral renal pedicles were clamped for 45 minutes maintaining body temperature at 37° C. After removing the clamps, the abdomen was closed in two layers by using 4-0 absorbable sutures and Reflex 9 mm clips. Blood samples were obtained daily by tail vein puncture. Blood urea levels were measured by the improved Jung method using the QuantiChrom™ Urea Assay Kit as per manufacturer's protocol. Kidneys were harvested five days following surgery.\n(§3) Administration of TUDCA: 200 mg/mL of TUDCA (Sigma) was dissolved in phosphate buffered saline at pH 7.5. […]\n(§4) Protein extraction: Frozen kidney tissue was ground in liquid nitrogen using a pestle and mortar. […] The amount of protein present in the solution was quantified by the Bicinchoninic Acid Protein Assay kit as per manufacturer's protocol.\n(§5) Western blot analysis: 20 μg of protein was mixed with SDS-PAGE sample buffer, boiled for 5 minutes, electrophoresed on a 12% Tris-HCl SDS-PAGE gel for 1 hour at 200 V, and electroblotted onto a nitrocellulose membrane. […] The immunoblot was detected using SuperSignal West Femto Maximum Sensitivity Substrate Kit. […]"}, "ERK1/2 [3]": {"system": "ERK1/2", "test": "Western blot for ERK1/2 in kidney after AKI", "assay_type": "in vivo", "settings": "rat kidney after AKI, vs controls, p=0.29", "experimental": "as §2, §3, §4, §5"}, "[4]": {"system": "human renal proximal tubular epithelial cells (RPTE)", "test": "Cytotoxicity assay (MultiTox-Glo) in RPTE cells", "assay_type": "cell-based", "settings": "24 hours", "experimental": "as §1\n(§6) Viability and Cytotoxicity Assays: Cytotoxicity and viability were determined using MultiTox-Glo Multiplex Cytotoxicity Assay kit as per manufacturer's protocols. RPTE cells were seeded in 96-well culture plates at a density of 1.2×10^4 cells per well. Subsequently, TUDCA was added to the wells to achieve final concentrations of 15, 150, 300, 450, 600, and 1200 μM. Following 24 hours of culture, to determine viability, 50 μL of GF-AFC Reagent was added to each well. The plates were gently shaken and incubated at 37° C. for 30 minutes in the dark. The cell viability was determined by measuring fluorescence at 400 nmEx/505 nmEm. Subsequently, to determine cytotoxicity, 50 μL of AAF-Glo Reagent was added to each well. The plates were shaken gently and incubated at room temperature for 15 minutes in the dark. Cytotoxicity was determined by measuring luminescence as per manufacturer's protocol."}, "JNK [5]": {"system": "JNK", "test": "Western blot for p-JNK in kidney after AKI", "assay_type": "in vivo", "settings": "rat kidney after AKI, TUDCA vs vehicle group", "experimental": "as §2, §3, §4, §5"}, "rat model of AKI [6]": {"system": "rat model of AKI", "test": "Histological injury score (PAS stain) of kidney sections after AKI", "assay_type": "in vivo", "settings": "five days after AKI, 400 mg/kg/day", "experimental": "as §2\n(§7) Administration of TUDCA: 200 mg/mL of TUDCA (Sigma) was dissolved in phosphate buffered saline at pH 7.5. 400 mg/kg of TUDCA or equal volume of vehicle was administered to rats by daily intraperitoneal injection from three days prior to surgery […] to five days (day 5) following surgery. The TUDCA dose was based on previous studies and its solubility at physiological pH.\n(§8) Histology and TUNEL assay: 4% paraformaldehyde-fixed, paraffin-embedded 5 μm kidney sections were stained with Periodic acid-Schiff (PAS) stain using standard methods. Histological examination was performed by a renal pathologist in a blinded fashion. Histological injury was scored based on the percentage of tubular cell necrosis, dilation, and cell detachment as per the PAS protocol. Reagents for the PAS assay were purchased from Sigma-Aldrich (St. Louis, Mo.) and the accompanying protocol was used. […] Apoptotic cells were detected by TUNEL assay using an APO-DIRECT™ kit as per manufacturer's protocol. The average injury score and percentage of TUNEL-positive cells from the renal cortex (superficial and deep), medulla (outer and inner), and papilla were counted and calculated separately and averaged to obtain the total score. […]"}, "caspase-8 [7]": {"system": "caspase-8", "test": "Western blot for active caspase-8 in kidney after AKI", "assay_type": "in vivo", "settings": "rat kidney after AKI, TUDCA- vs vehicle-treated rats", "experimental": "as §2, §3, §4, §5"}, "[8]": {"settings": "TUDCA over UDCA; cited from earlier work"}, "cell culture": {"system": "cell culture", "settings": "has been shown; cited from earlier work"}, "p38 [9]": {"system": "p38", "test": "Western blot for p38 in RPTE cells after cryopreservation injury", "assay_type": "cell-based, human", "settings": "100 and 150 μM", "experimental": "as §1\n(§9) Cryopreservation injury: We have utilized a published cell culture model of cryopreservation injury. In brief, RPTE cells were grown to 80% confluence in the complete medium containing TUDCA or vehicle. The complete medium was then replaced with University of Wisconsin solution containing TUDCA or vehicle. The culture plates were subsequently incubated in a temperature-regulated refrigerator at 4° C. for 48 hours. […]\nas §4, §5"}, "p38 [10]": {"system": "p38", "test": "Western blot for p-p38 in kidney after AKI", "assay_type": "in vivo", "settings": "rat kidney after AKI, TUDCA vs vehicle group", "experimental": "as §2, §3, §4, §5"}, "[11]": {"system": "human renal proximal tubular epithelial cells (RPTE)", "test": "Viability assay (MultiTox-Glo) in RPTE cells", "assay_type": "cell-based", "settings": "15 μM to 1200 μM, 24 hours", "experimental": "as §1, §6"}, "caspase-12": {"system": "caspase-12", "test": "Western blot for active caspase-12 in kidney after AKI", "assay_type": "in vivo", "settings": "rat kidney after AKI, TUDCA- vs vehicle-treated rats", "experimental": "as §2, §3, §4, §5"}, "rat model of AKI [12]": {"system": "rat model of AKI", "test": "Rat model of AKI (warm ischemia reperfusion), blood urea levels", "assay_type": "in vivo", "settings": "400 mg/kg/day intraperitoneal", "experimental": "as §2, §7"}, "caspase-3": {"system": "caspase-3", "test": "Caspase-3 activity assay in RPTE cells after cryopreservation injury", "assay_type": "cell-based, human", "settings": "150-600 μM, dose-dependent, p<0.05", "experimental": "as §1, §9, §4\nCaspase-3 activity assay: The caspase-3 activity in kidney and RPTE extracts was quantified using Apo-One® Homogeneous Caspase-3/7 Assay kit as per the manufacturer's protocol. […] Fluorescence was measured by Spectramax M12 fluorescent plate reader (Molecular Devices) using wavelengths of 485 nmEx/520 nmEm. […]"}, "procaspase-12": {"system": "procaspase-12", "test": "Western blot for procaspase-12 in RPTE cells after cryopreservation injury", "assay_type": "cell-based, human", "experimental": "as §1, §9, §4, §5"}, "rat model of AKI [13]": {"system": "rat model of AKI", "test": "TUNEL assay of kidney sections after AKI", "assay_type": "in vivo", "experimental": "as §2, with “surgery. […]” for “surgery.”\nas §8, with “Histological examination was performed by a renal pathologist in a blinded fashion.” left out, “protocol.” for “protocol. Reagents for the PAS assay were purchased from Sigma-Aldrich (St. Louis, Mo.) and the accompanying protocol was used.”"}, "ERK1/2 [14]": {"system": "ERK1/2", "test": "Western blot for phosphorylated ERK1/2 in RPTE cells after cryopreservation injury", "assay_type": "cell-based, human", "experimental": "as §1, §9, §4, §5"}, "JNK [15]": {"system": "JNK", "test": "Western blot for JNK in RPTE cells after cryopreservation injury", "assay_type": "cell-based, human", "settings": "100 and 150 μM", "experimental": "as §1, §9, §4, §5"}, "caspase-8 [16]": {"system": "caspase-8", "test": "Western blot for caspase-8 in RPTE cells after cryopreservation injury", "assay_type": "cell-based, human", "experimental": "Cell culture: RPTE cells were grown in Renal Epithelial Cell Basal Medium (REBM) with full supplements at 37° C. in 5% CO2 incubator as per supplier's instructions. RPTE cells were able to proliferate for 6-8 passages under the culture conditions. Cryopreservation injury: We have utilized a published cell culture model of cryopreservation injury. In brief, RPTE cells were grown to 80% confluence in the complete medium containing TUDCA or vehicle. The complete medium was then replaced with University of Wisconsin solution containing TUDCA or vehicle. The culture plates were subsequently incubated in a temperature-regulated refrigerator at 4° C. for 48 hours. To simulate warm reperfusion phase of kidney transplantation, University of Wisconsin solution was replaced with complete medium containing TUDCA or vehicle, and cells were cultured for an additional 24 hours at 37° C. We used 100 μM or 150 μM of TUDCA for these experiments. Protein extraction: Frozen kidney tissue was ground in liquid nitrogen using a pestle and mortar. […] The amount of protein present in the solution was quantified by the Bicinchoninic Acid Protein Assay kit as per manufacturer's protocol. […] The immunoblot was detected using SuperSignal West Femto Maximum Sensitivity Substrate Kit. […]"}}, "note": "Entries after “also recorded” stand apart in the source; their conditions may differ.", "data": [{"smiles": "C[C@H](CCC(=O)NCCS(=O)(=O)O)[C@H]1CC[C@H]2[C@@H]3[C@@H](O)C[C@@H]4C[C@H](O)CC[C@]4(C)[C@H]3CC[C@]12C", "note": "[TUDCA, tauroursodeoxycholic acid]", "values": [{"measurement": "caspase-9 activation after cryopreservation injury", "setting": "caspase-9 [1]", "result": "significantly inhibited"}, {"measurement": "activation of caspase-9 (mitochondrial pathway of apoptosis)", "setting": "caspase-9 [2]", "result": "significantly inhibited"}, {"measurement": "activation of ERK1/2", "setting": "ERK1/2 [3]", "result": "increased ERK1/2 levels in two out of three rats; also recorded: increased activation of ERK1/2 in the TUDCA group, although without statistical significance"}, {"measurement": "cytotoxicity", "setting": "[4]; 1200 μM, p<0.05", "result": "cytotoxic"}, {"measurement": "cytotoxicity", "setting": "[4]; 15 to 600 μM", "result": "did not cause cytotoxicity"}, {"measurement": "amount of p-JNK", "setting": "JNK [5]", "result": "No difference"}, {"measurement": "histological injury vs vehicle-treated rats", "setting": "rat model of AKI [6]; deep cortex, p<0.001", "result": "significantly less injury"}, {"measurement": "histological injury vs vehicle-treated rats", "setting": "rat model of AKI [6]; medulla or papilla", "result": "no differences"}, {"measurement": "histological injury vs vehicle-treated rats", "setting": "rat model of AKI [6]; superficial cortex, p<0.05", "result": "significantly less injury"}, {"measurement": "activation of caspase-8 (death-receptor pathway)", "setting": "caspase-8 [7]", "result": "no significant difference"}, {"measurement": "solubility at physiological pH compared with UDCA", "setting": "[8]", "result": "higher solubility at physiological pH"}, {"measurement": "safe concentrations in cell culture experiments", "setting": "cell culture", "result": "safe in concentrations ranging from 100 nM up to 5 mM"}, {"measurement": "effect on p38", "setting": "p38 [9]", "result": "no effect"}, {"measurement": "amount of p-p38", "setting": "p38 [10]", "result": "No difference"}, {"measurement": "cell viability", "setting": "[11]", "result": "None of the tested concentrations of TUDCA decreased cell viability"}, {"measurement": "activation of caspase-12 (ER-stress pathway)", "setting": "caspase-12", "result": "no significant difference"}, {"measurement": "elevation in blood urea levels vs vehicle group", "setting": "rat model of AKI [12]; days 1 (p<0.001) and 2 (p<0.01) following AKI", "result": "significantly less elevation in blood urea levels"}, {"measurement": "blood urea vs vehicle group", "setting": "rat model of AKI [12]; days 3-5 following AKI", "result": "blood urea was lower in the TUDCA-treated rats, the difference was not statistically significant"}, {"measurement": "caspase-3 activation after cryopreservation injury", "setting": "caspase-3", "result": "significantly inhibited"}, {"measurement": "activation of procaspase-12 (ER-stress pathway)", "setting": "procaspase-12", "result": "no effect"}, {"measurement": "TUNEL-positive cells vs vehicle-treated rats", "setting": "rat model of AKI [13]; outer strip of the outer medulla, p<0.001", "result": "significantly less TUNEL-positive cells"}, {"measurement": "TUNEL-positive cells vs vehicle-treated rats", "setting": "rat model of AKI [13]; superficial and deep cortices, p<0.05", "result": "significantly less TUNEL-positive cells"}, {"measurement": "activation of ERK1/2 (phosphorylated ERK1/2)", "setting": "ERK1/2 [14]; 100 μM, p<0.05", "result": "activated ERK1/2"}, {"measurement": "activation of ERK1/2 (phosphorylated ERK1/2)", "setting": "ERK1/2 [14]; 150 μM, p<0.01", "result": "activated ERK1/2"}, {"measurement": "effect on JNK", "setting": "JNK [15]", "result": "no effect"}, {"measurement": "activation of procaspase-8 (death receptor pathway)", "setting": "caspase-8 [16]", "result": "no effect"}]}]}
